The source of these data is patent publication US6599706B1, “Recombinant PR-3 and assays employing the same” (Chiron Corporation, priority 1994, dated 2003).

Test [1] deals with T1, TNFα convertase from HL60 cells (Homo sapiens, UniProt P24158).
T1 construct: solution containing convertase activity partially purified from uninduced HL60 cells; endogenous in cells
T1 sequence (P24158 28-248): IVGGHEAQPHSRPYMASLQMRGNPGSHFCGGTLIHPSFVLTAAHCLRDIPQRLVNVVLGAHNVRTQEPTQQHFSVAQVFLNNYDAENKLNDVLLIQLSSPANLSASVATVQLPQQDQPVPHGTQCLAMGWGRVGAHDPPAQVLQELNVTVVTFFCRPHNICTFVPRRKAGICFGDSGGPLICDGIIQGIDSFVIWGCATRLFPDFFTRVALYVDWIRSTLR
Description: 35S-labelled 26 kD TNFα in vitro transcription/translation autoradiographic convertase assay with HL60 convertase (P-30 fraction). It is filed as biochemical. The conditions noted are these: 30° C., 1 hour, SDS-PAGE autoradiography. The source says:
A preferred assay procedure consists of in vitro transcription/translation to produce the 26 kD molecule, followed by treatment with convertase in the presence or absence of compounds being tested for convertase inhibitory activity. The procedure entails in vitro transcription/translation of the TNFα cDNA present in the pGEM vector. Thus, the sequence was removed from pB11 by Pst I digestion and was inserted into the Pst I site of pGEM-3 (obtainable from Promega Biotec, Madison Wis.). The resulting plasmid, termed pGEM-TNFα14, was amplified in E. coli using established techniques, and plasmid DNA was prepared according to the procedure of Birnboim and Doly, described above. Plasmid DNA was transcribed in vitro by linearizing it with Hind III, and the linearized plasmid templates were used to prepare capped transcripts with T7 RNA polymerase and an in vitro transcription kit supplied by Promega Biotec (Madison, Wis.).
The mRNA produced above was translated in vitro in the presence of ^35S-cysteine to produce ^35S-cysteine-labelled 26 kD TNFα. A rabbit reticulocyte lysate translation kit was used, also supplied by Promega Biotec, and the conditions recommended by the manufacturer were followed.
^35S-cysteine-labelled 26 kD TNFα was used to assay for convertase inhibitors as follows. 25 μl of in vitro translated material was combined with 250 μl of solution containing convertase activity partially purified from uninduced HL60 cells, plus compounds to be assayed for inhibitory activity. The convertase was produced by harvesting 2×10^9 HL60 cells, disrupting the cells, and isolating S-1 (supernatant fluid from a 100,000 ×g centrifugation) and P-30 (pellet from a 30,000×g centrifugation) fractions totalling 18 and 6 ml, respectively. 250 μl of the P-30 fraction was used, although the S-1 fraction may also be used. The assay was carried out at 30° C. for 1 hour, essentially as described above. Next, the reaction mixture was immunoprecipitated with rabbit anti-human TNFα polyclonal antisera (produced from TNFα made in E. coli) and protein A Sepharose, pelleted and washed. […]

For another test, the target named is T2, recombinant PR-3 (rPR-3) (Homo sapiens, UniProt P24158).
T2 construct: made in house; host or cells: Sf9 insect cells (baculovirus, pAcC13preproPR-3)
T2 sequence (P24158 28-248 limits assumed): T1 sequence (P24158 28-248)
Description: Residual recombinant PR-3 activity with Boc-Ala-ONp substrate. It is filed as biochemical. How it is done: Cytoplasmic anti-neutrophil cytoplasmic antibodies (c-ANCA) are human polyclonal antibodies derived from patients with Wegener's granulomatosis. […] Protein-A-purified human c-ANCA (supplied by Dr. Erik Hack, The Netherlands) was mixed with purified recombinant PR-3 (SEQ ID NO: 23) prepared as described above at various molar ratios of antibody to enzyme, and after incubation for 1 hour at 37° C., residual enzyme activity was measured using the Boc-Ala-ONp substrate as described in Example 4.
The two peptide diphosphonate inhibitors, Boc-Ala-Pro-Val-(OPh)2 and Boc-Val-Pro-Val-(OPh)2, were mixed at various concentrations with 125 ng of rPR-3 (prepared as described above) and incubated for 1 hour at 25° C. The residual enzyme activity was measured using the Boc-Ala-ONp substrate and compared to the same amount of enzyme incubated in the absence of inhibitor. Under these conditions, the Boc-Ala-Pro-Val-(OPh)2 inhibited PR-3 with an IC50 of about 10 μM and the Boc-Val-Pro-Val-(OPh)2 inhibited PR-3 with an IC50 of about 0.4 μM. […] Thus, recombinant PR-3 may be employed in detection of useful inhibitors of native PR-3.

Test [2] addresses T3, PR-3 (Homo sapiens, UniProt P24158).
T3 sequence (P24158 28-248): T1 sequence (P24158 28-248)
Description: Inhibition of PR-3, summary statement of the assays shown below. It is filed as biochemical. An excerpt: As shown below, PR-3 is inhibited by peptide diphenyl phosphonate inhibitors, elastinal, and dichloro-isocoumarin (DCI). The peptide diphenyl phosphonate inhibitors include Boc-Val-Pro-Val-p(OPh)2 and Boc-Ala-Pro-Val-p(OPh)2 (BOC-butoxycarbonyl). […] “Boc” means N-tert-butoxycarbonyl and “p(OPh)2” represents the diphenyl phosphonate moiety, wherein the formula—COOH group is replaced with P(=0)-(O-phenyl)2. See Oleksyszyn et al., Biochem 30:485 (1991). It will be appreciated that other peptide diphenyl phosphonate molecules may inhibit PR-3. Potential inhibitors may be constructed using the procedures shown in Oleksyszyn et al., supra, using small aliphatic peptides, for an example. Once the potential inhibitors are made, they may be tested in the assays shown below.

Test [3] concerns the target T4, TNFα convertase/PR-3 (purified native PR-3) (Homo sapiens, UniProt P24158).
T4 construct: from tissue; host or cells: human blood neutrophils
T4 sequence (P24158 28-248): T1 sequence (P24158 28-248)
Description: Colorimetric Boc-Ala-ONp assay for convertase inhibition. To be noted: for inhibition of TNFα convertase/PR-3 activity: 35 μM. It is filed as biochemical. How it is done:
TNFα convertase inhibition can also be measured by a colorimetric assay. In this type of assay, the actual activity of TNFα convertase is measured directly using a colorimetric TNFα convertase substrate. […] One such substrate is Boc-Ala-ONp (Bachem Bioscience, Inc., Philadelphia, Pa.). Other potentially useful substrates can be predicted from the structure of TNFα convertase and other serine proteases. Although the example herein uses purified native PR-3 as the TNFα convertase, it is contemplated that recombinant PR-3 or other TNFα convertases can be used in this assay as well.
Peptide diphenyl phosphonate inhibitors were synthesized and stored as lyophilized solids as described in Oleksyszyn and Powers, Biochem 30:485-493 (1991). Inhibitor solutions (10 mg/ml) were prepared in 100% dimethyl sulfoxide (DMSO) and diluted into aqueous buffers upon initiation of the experiments. 3,4, dichloro-isocoumarin was purchased from CalBiochem. Purified PR-3 (10 μl, 0.1 mg/ml) was mixed with varying concentrations of protease inhibitor ([…]) in 20 mM sodium phosphate buffer, pH 7.0, containing 0.1 M sodium chloride. Aliquots (40 μl) were removed at selected times and diluted 1/10 into a colorimetric assay for convertase, containing 0.5-1 mM Boc-Ala-ONp (prepared fresh from a 50 mM stock in 100% methanol) in 0.02 M sodium phosphate buffer, pH 7.0, 0.1 M sodium chloride. The increase in absorbance was monitored at 347 nm on a Hewlett Packard 8450A spectrophotometer, and using an extinction coefficient of 5.5×10^3 M^−1cm^−1 to calculate units of enzyme activity.
The peptide diphenyl phosphonates were tested in the colorimetric assay described in Example 3, for inhibition of TNFα convertase/PR-3 activity.

Test [4] deals with T3, PR-3. The conditions noted are these: cited from earlier work.
For test [5], the target named is T5, purified native PR-3 from human neutrophils (Homo sapiens, UniProt P24158).
T5 construct: from tissue; host or cells: human blood neutrophils
T5 sequence (P24158 28-248): T1 sequence (P24158 28-248)
Description: 35S-labelled 26 kD TNFα autoradiographic convertase assay with purified native PR-3. To be noted: PR-3 0.3 μg/ml preincubated 30 minutes. It is filed as biochemical. As for the experimental part:
^35S-cysteine-labelled 26 kD TNFα was used to assay for convertase inhibitors as follows. 25 μl of in vitro translated material was combined with 250 μl of solution containing convertase activity partially purified from uninduced HL60 cells, plus compounds to be assayed for inhibitory activity. The convertase was produced by harvesting 2×10^9 HL60 cells, disrupting the cells, and isolating S-1 (supernatant fluid from a 100,000 ×g centrifugation) and P-30 (pellet from a 30,000×g centrifugation) fractions totalling 18 and 6 ml, respectively. 250 μl of the P-30 fraction was used, although the S-1 fraction may also be used. The assay was carried out at 30° C. for 1 hour, essentially as described above. Next, the reaction mixture was immunoprecipitated with rabbit anti-human TNFα polyclonal antisera (produced from TNFα made in E. coli) and protein A Sepharose, pelleted and washed. The bound protein was eluted and electrophoresed using SDS-PAGE. The gel was fixed in 40% methanol, 10% acetic acid, soaked in Enlightening (Dupont), dried, and exposed to X-ray film which was subsequently developed.
The above assay was also used with purified native PR-3 from human neutrophils to test a variety of proteinase inhibitors for their ability to inhibit TNFα convertase activity, as shown in FIG. 5. Purified PR-3 (0.3 μg/ml) was preincubated for 30 minutes with the following inhibitors prior to addition of ^35S-labelled 26 kD-TNFα, and then assayed as described above: DCI (45 μM), α-2-macroglobulin (1 mg/ml), PMSF (20 μM), leupeptin (2 μg/ml), EDTA (10 mM), or pepstatin (2 μg/ml).

Read-outs that look alike come from different tables or passages of the source. No end group written: not given here.

For `CO[C@@H]1C(=O)N2C(C(=O)N3CCOCC3)=C(COC(C)=O)CS(=O)(=O)[C@H]12` (relative stereo) [(1-((3-((acetyloxyl)-7-methoxy-8-oxy-8-oxo-5-thio-1-azabicyclo [4.2.0]oct-2-en-2-yl)carbonyl)morpholine, S, S-dioxide, (6R-cis)], the “inhibition of convertase activity (conversion of 26 kD TNFα)” value in test [1] (1 mM) is “inhibits convertase activity”.

On to `CC(C)C(NC(=O)[C@@H]1CCCN1C(=O)[C@H](C)NC(=O)OC(C)(C)C)P(=O)(Oc1ccccc1)Oc1ccccc1` (stereo partly drawn) [APV, Boc-Ala-Pro-Val-p(OPh)2], for which the concentration for half-maximal inhibition (IC50) on recombinant PR-3 (rPR-3) was roughly 10 µM. Further, the “inhibition of PR-3” value at PR-3 [2] is reported as “inhibited”. In addition, the “inhibition of TNFα convertase/PR-3 activity” value in test [3] is “demonstrated inhibitory activity”.

On to `CC(NC(=O)OC(C)(C)C)C(=O)NC(CCC(N)=O)C(=O)NC(C)P(=O)(Oc1ccccc1)Oc1ccccc1` (stereo not drawn) [AQA, Boc-Ala-Gln-Ala-p(OPh)2], for which, on PR-3 [2], the “inhibition of PR-3” value was “much less inhibitory activity”. Also, in test [3], the “inhibition of TNFα convertase/PR-3 activity” value is on record as “marginal, if any inhibition”.

For the compound `CC(C)CC(NC(=O)OC(C)(C)C)C(=O)NC(C)C(=O)NC(CCC(N)=O)C(=O)NC(C)P(=O)(Oc1ccccc1)Oc1ccccc1` (stereo not drawn) [LAQA, Boc-Leu-Ala-Gln-Ala-p(OPh)2], the “inhibition of PR-3” value on PR-3 [2] is “much less inhibitory activity”. In test [3], the “inhibition of TNFα convertase/PR-3 activity” value is listed as “marginal, if any inhibition”.

As for `O=S(=O)(F)Cc1ccccc1` [PMSF, phenylmethyl-sulfonyl fluoride], on PR-3 [4], the “inhibition of PR-3” value is “inhibited”. Moreover, the “inhibition of TNFα convertase activity of purified PR-3” value in test [5] (20 μM) is listed as “significant inhibitory activity”.

With `CC(C)C(NC(=O)[C@@H]1CCCN1C(=O)[C@@H](NC(=O)OC(C)(C)C)C(C)C)P(=O)(Oc1ccccc1)Oc1ccccc1` (stereo partly drawn) [VPV, Boc-Val-Pro-Val-p(OPh)2], at recombinant PR-3 (rPR-3), the 50% inhibitory concentration (IC50) was roughly 0.4 µM. Moreover, the “inhibition of PR-3” value at PR-3 [2] was “inhibited”. Further, in test [3], the “inhibition of TNFα convertase/PR-3 activity” value is given as “demonstrated inhibitory activity”.

For `CC(C)C[C@H](NC(=O)N[C@H](C(=O)N[C@@H](CCC(N)=O)C(=O)N[C@@H](C)C=O)[C@@H]1CCNC(=N)N1)C(=O)O` [elastinal], the “inhibition of the convertase (conversion of 26 kD TNFα)” value in test [1] (5 mg/ml) is “inhibit the convertase”. In addition, the “inhibition of PR-3” value on PR-3 [2] was “inhibited”.

For the compound AQAVRSSS, in test [3] (50 μM, Boc-Ala-ONp colorimetric assay with PR-3), the “inhibition of convertase activity” value is listed as “did not inhibit convertase activity significantly”.

Consider “α1-antitrypsin: protein reported to inhibit PR-3”, for which the “inhibition of PR-3” value with PR-3 [4] is given as “inhibited”.

For “α-2-macroglobulin: proteinase inhibitor tested against purified PR-3”, in the test with PR-3 [4], the “inhibition of PR-3” value is on record as “inhibited”. Moreover, in test [5] (1 mg/ml), the “inhibition of TNFα convertase activity of purified PR-3” value is recorded as “significant inhibitory activity”.
